According to the supplement of paper PMC10307832:

Key:
Test in all cases: relative viability (nuclei count vs DMSO), 5 days (fraction); higher = more cells survive
MK-2206 + Navitoclax = compound: NC1(c2ccc(-c3nc4ccn5c(=O)[nH]nc5c4cc3-c3ccccc3)cc2)CCC1 [MK-2206] + CC1(C)CCC(c2ccc(Cl)cc2)=C(CN2CCN(c3ccc(C(=O)NS(=O)(=O)c4ccc(N[C@H](CCN5CCOCC5)CSc5ccccc5)c(S(=O)(=O)C(F)(F)F)c4)cc3)CC2)C1 [Navitoclax] (partner 0.5 µM)
Outline: (§1)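 Lung cancer cell lines in 1536-well plates were dosed by pin tool the day after seeding, either with one drug alone or with a fixed anchor-drug dose plus five library-drug doses (not always all listed) in √10 steps. After 5 days, cells were fixed and their nuclei stained in one step (final 0.05% Triton X-100, 1% formaldehyde, 1 ug/ml Hoechst), then counted on 4× images. Relative viability is the nuclei count in treated wells divided by that in vehicle wells. Values are medians of duplicate plates.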

MK-2206 + Decitabine = compound: NC1(c2ccc(-c3nc4ccn5c(=O)[nH]nc5c4cc3-c3ccccc3)cc2)CCC1 [MK-2206] + Nc1ncn([C@H]2C[C@H](O)[C@@H](CO)O2)c(=O)n1 [Decitabine] (partner 2 µM)
Outline: as §1

Pictilisib + Phenformin = compound: CS(=O)(=O)N1CCN(Cc2cc3nc(-c4cccc5[nH]ncc45)nc(N4CCOCC4)c3s2)CC1 [Pictilisib] + N=C(N)NC(=N)NCCc1ccccc1 [Phenformin] (partner 250 µM)
Outline: as §1

Pictilisib + Lapatinib = compound: CS(=O)(=O)N1CCN(Cc2cc3nc(-c4cccc5[nH]ncc45)nc(N4CCOCC4)c3s2)CC1 [Pictilisib] + CS(=O)(=O)CCNCc1ccc(-c2ccc3ncnc(Nc4ccc(OCc5cccc(F)c5)c(Cl)c4)c3c2)o1 [Lapatinib] (partner 2 µM)
Outline: as §1

MK-2206 + Luminespib = compound: NC1(c2ccc(-c3nc4ccn5c(=O)[nH]nc5c4cc3-c3ccccc3)cc2)CCC1 [MK-2206] + CCNC(=O)c1noc(-c2cc(C(C)C)c(O)cc2O)c1-c1ccc(CN2CCOCC2)cc1 [Luminespib] (partner 0.01 µM)
Outline: as §1

Cell Line	relative viability (MK-2206 + Navitoclax; first compound 0.01 µM)	relative viability (MK-2206 + Navitoclax; first compound 0.03162 µM)	relative viability (MK-2206 + Navitoclax; first compound 0.3162 µM)	relative viability (MK-2206 + Navitoclax; first compound 1 µM)	relative viability (MK-2206 + Decitabine; first compound 0.01 µM)	relative viability (MK-2206 + Decitabine; first compound 0.03162 µM)	relative viability (MK-2206 + Decitabine; first compound 0.3162 µM)	relative viability (MK-2206 + Decitabine; first compound 1 µM)	relative viability (Pictilisib + Phenformin; first compound 0.02 µM)	relative viability (Pictilisib + Phenformin; first compound 0.06325 µM)	relative viability (Pictilisib + Phenformin; first compound 0.6325 µM)	relative viability (Pictilisib + Phenformin; first compound 2 µM)	relative viability (Pictilisib + Lapatinib; first compound 0.02 µM)	relative viability (Pictilisib + Lapatinib; first compound 0.06325 µM)	relative viability (Pictilisib + Lapatinib; first compound 0.6325 µM)	relative viability (Pictilisib + Lapatinib; first compound 2 µM)	relative viability (MK-2206 + Luminespib; first compound 0.01 µM)	relative viability (MK-2206 + Luminespib; first compound 0.03162 µM)	relative viability (MK-2206 + Luminespib; first compound 0.3162 µM)	relative viability (MK-2206 + Luminespib; first compound 1 µM)
NCI-H1792	0.603	0.706	0.655	0.578	0.6	0.577	0.581	0.458	0.343	0.257	0.128	0.124	0.923	0.928	0.809	0.387	0.467	0.455	0.473	0.394
NCI-H1793	0.521	0.475	0.352	0.463	0.477	0.552	0.439	0.435	0.387	0.38	0.221	0.203	0.693	0.963	0.61	0.336	0.186	0.178	0.164	0.174
NCI-H1915	0.813	0.83	0.835	0.784	0.263	0.252	0.264	0.251	0.392	0.367	0.365	0.361	0.96	1.02	0.916	0.935	0.86	0.853	0.787	0.72
NCI-H1944	1.07	1.03	1.02	0.992	0.414	0.449	0.508	0.446	0.206	0.184	0.137	0.141	0.969	0.753	0.597	0.402	0.729	0.806	0.685	0.676
NCI-H1975	1.05	0.969	0.938	0.787	0.387	0.346	0.36	0.323	0.431	0.387	0.25	0.177	0.94	0.781	0.541	0.212	0.126	0.199	0.204	0.144
NCI-H1993	0.901	0.801	0.678	0.649	0.533	0.585	0.516	0.491	0.527	0.504	0.626	0.573	0.878	0.895	0.783	0.705	0.44	0.827	0.671	0.565
NCI-H2009	1.12	1.15	1.17	1.13	0.379	0.376	0.432	0.365	0.501	0.504	0.438	0.365	1.06	0.932	0.858	0.844	1.01	0.992	1.06	1.01
